Active and inactive are the calls of the source. The calls are words filed in the database; no cut-off is given here.
Key:
AHH-1 [1] = experiment: Cytotoxicity against human AHH-1 cells assessed as inhibition of cell growth incubated for 24 hrs by CCK-8 assay; format: functional, cell-based; details: AHH-1, 24 h
AHH-1 [2] = experiment: Anti-iradiation activity against human AHH-1 cells assessed as cell viability at 10 micromol preincubated with compound for 24 hrs followed by irradiation with 8 Gy and measured after 24 hrs by CCK-8 assay; format: functional; details: dose 10 µmol; time 48 hrs
Mus musculus [3] = experiment: Radioprotective activity in C57BL/6J mouse assessed as survival rate at 30 mg/kg, ip preincubated with compound for 15 to 1440 mins followed by irradiation and measured at day 30; format: functional; details: light or radiation study, time 15-44640 min
Mus musculus [4] = experiment: Radioprotective activity in irradiated C57BL/6J mouse model assessed as increase in WBC count at 300 mg/kg, ip preincubated with compound for 15 to 1440 mins followed by irradiation with 6.5 Gy and measured on day 1 (reference value: 43.39%); format: functional; details: time 15-2880 min
Mus musculus [5] = experiment: Radioprotective activity in irradiated C57BL/6J mouse model assessed as increase in HGB count at 300 mg/kg, ip preincubated with compound for 15 to 1440 mins followed by irradiation with 6.5 Gy and measured after 13 days of radiation; format: functional, organism-based; details: time 15-20160 min
Mus musculus [6] = experiment: Radioprotective activity in irradiated C57BL/6J mouse model assessed as increase in HGB count at 300 mg/kg, ip preincubated with compound for 15 to 1440 mins followed by irradiation with 6.5 Gy and measured after 1 to 10 days of radiation; format: functional, organism-based
AHH-1 [7] = experiment: Induction of apoptosis in human AHH-1 cells assessed as viable cells preincubated with compound for 24 hrs followed by irradiation with 6 Gy and measured after 24 hrs of radiation by Annexin V-FITC/PI staining based flow cytometry analysis (reference value: 52.3%); format: functional; details: time 48 hrs
Mus musculus [8] = experiment: Radioprotective activity in irradiated C57BL/6J mouse model assessed as increase in platelets count at 300 mg/kg, ip preincubated with compound for 15 to 1440 mins followed by irradiation with 6.5 Gy and measured after 10 to 13 days of radiation; format: functional, organism-based
AHH-1 [9] = experiment: Induction of apoptosis in human AHH-1 cells assessed as viable cells preincubated with compound for 24 hrs followed by irradiation with 4 Gy and measured after 24 hrs of radiation by Annexin V-FITC/PI staining based flow cytometry analysis (reference value: 66.9 %); format: functional; details: time 48 hrs
AHH-1 [10] = experiment: Induction of apoptosis in human AHH-1 cells assessed as necrotic cells preincubated with compound for 24 hrs followed by irradiation with 6 Gy and measured after 24 hrs of radiation by Annexin V-FITC/PI staining based flow cytometry analysis (reference value: 3.71%); format: functional; details: time 48 hrs
Mus musculus [11] = experiment: Radioprotective activity in irradiated C57BL/6J mouse model assessed as increase in platelets count at 300 mg/kg, ip preincubated with compound for 15 to 1440 mins followed by irradiation with 6.5 Gy and measured after 3 to 10 days of radiation; format: functional, organism-based
Mus musculus [12] = experiment: Radioprotective activity in irradiated C57BL/6J mouse model assessed as increase in platelets count at 300 mg/kg, ip preincubated with compound for 15 to 1440 mins followed by irradiation with 6.5 Gy and measured after 2 days of radiation; format: functional, organism-based; details: time 15-4320 min
AHH-1 [13] = experiment: Induction of apoptosis in human AHH-1 cells assessed as early apoptotic cells preincubated with compound for 24 hrs followed by irradiation with 4 Gy and measured after 24 hrs of radiation by Annexin V-FITC/PI staining based flow cytometry analysis (reference value: 14.3%); format: functional; details: time 48 hrs
AHH-1 [14] = experiment: Induction of apoptosis in human AHH-1 cells assessed as late apoptotic cells preincubated with compound for 24 hrs followed by irradiation with 6 Gy and measured after 24 hrs of radiation by Annexin V-FITC/PI staining based flow cytometry analysis (reference value: 29.8%); format: functional; details: time 48 hrs
AHH-1 [15] = experiment: Induction of apoptosis in human AHH-1 cells assessed as necrotic cells preincubated with compound for 24 hrs followed by irradiation with 4 Gy and measured after 24 hrs of radiation by Annexin V-FITC/PI staining based flow cytometry analysis (reference value: 1.06%); format: functional; details: time 48 hrs
Mus musculus [16] = experiment: Radioprotective activity in irradiated C57BL/6J mouse model assessed as increase in RBC count at 300 mg/kg, ip preincubated with compound for 15 to 1440 mins followed by irradiation with 6.5 Gy and measured after 10 to 13 days of radiation; format: functional, organism-based; details: Erythrocyte
AHH-1 [17] = experiment: Induction of apoptosis in human AHH-1 cells assessed as late apoptotic cells preincubated with compound for 24 hrs followed by irradiation with 8 Gy and measured after 24 hrs of radiation by Annexin V-FITC/PI staining based flow cytometry analysis (reference value: 33.6%); format: functional; details: time 48 hrs
Mus musculus [18] = experiment: Radioprotective activity in irradiated C57BL/6J mouse model assessed as increase in RBC count at 300 mg/kg, ip preincubated with compound for 15 to 1440 mins followed by irradiation with 6.5 Gy and measured after 13 days of radiation; format: functional, organism-based; details: Erythrocyte, time 15-20160 min
AHH-1 [19] = experiment: Induction of apoptosis in human AHH-1 cells assessed as late apoptotic cells preincubated with compound for 24 hrs followed by irradiation with 4 Gy and measured after 24 hrs of radiation by Annexin V-FITC/PI staining based flow cytometry analysis (reference value: 17.7%); format: functional; details: time 48 hrs
AHH-1 [20] = experiment: Induction of apoptosis in human AHH-1 cells assessed as early apoptotic cells preincubated with compound for 24 hrs followed by irradiation with 8 Gy and measured after 24 hrs of radiation by Annexin V-FITC/PI staining based flow cytometry analysis (reference value: 16.5%); format: functional; details: time 48 hrs
AHH-1 [21] = experiment: Induction of apoptosis in human AHH-1 cells assessed as viable cells preincubated with compound for 24 hrs followed by irradiation with 8 Gy and measured after 24 hrs of radiation by Annexin V-FITC/PI staining based flow cytometry analysis (reference value: 45.1%); format: functional; details: time 48 hrs
AHH-1 [22] = experiment: Induction of apoptosis in human AHH-1 cells assessed as early apoptotic cells preincubated with compound for 24 hrs followed by irradiation with 6 Gy and measured after 24 hrs of radiation by Annexin V-FITC/PI staining based flow cytometry analysis (reference value: 14.1%); format: functional; details: time 48 hrs
AHH-1 [23] = experiment: Induction of apoptosis in human AHH-1 cells assessed as necrotic cells preincubated with compound for 24 hrs followed by irradiation with 8 Gy and measured after 24 hrs of radiation by Annexin V-FITC/PI staining based flow cytometry analysis (reference value: 4.86%); format: functional; details: time 48 hrs

## O=S(=O)(Cc1ccc(Cl)cc1)c1ccc2cc(Br)ccc2n1
AHH-1 [1]
  IC50: > 640 µM
AHH-1 [2]
  Activity: 27.81%

## O=S(=O)(Cc1ccc(Br)cc1)c1ccc2ccccc2n1
AHH-1 [1]
  IC50: > 640 µM

## [O-][S+](Cc1ccc(Cl)cc1)c1ccc2cc(Cl)ccc2n1 (centres undefined)
AHH-1 [1]
  IC50: > 640 µM

## O=C(O)c1ccc(C[S+]([O-])c2ccc3cc(F)ccc3n2)cc1 (centres undefined)
AHH-1 [1]
  IC50: > 640 µM
Mus musculus [3]
  survival at 30 mg/kg: 50%
AHH-1 [2]
  Activity: 30.18%

## [O-][S+](Cc1ccc(Br)cc1)c1ccc2ccccc2n1 (centres undefined)
AHH-1 [1]
  IC50: > 640 µM

## [O-][S+](Cc1ccc(Br)cc1)c1ccc2cc(Cl)ccc2n1 (centres undefined)
AHH-1 [1]
  IC50: > 640 µM

## [O-][S+](Cc1ccc(Cl)cc1)c1ccc2cc(Br)ccc2n1 (centres undefined)
AHH-1 [1]
  IC50: 224 µM
AHH-1 [2]
  Activity: 30.63%

## [O-][S+](Cc1ccc(F)cc1)c1ccc2cc(Cl)ccc2n1 (centres undefined)
AHH-1 [1]
  IC50: > 640 µM

## O=C(O)c1ccc(CSc2ccc3cc(Cl)ccc3n2)cc1
AHH-1 [1]
  IC50: > 640 µM

## [O-][S+](Cc1ccc(F)cc1)c1ccc2cc(F)ccc2n1 (centres undefined)
AHH-1 [1]
  IC50: > 640 µM

## N#Cc1ccc(C[S+]([O-])c2ccc3cc(Cl)ccc3n2)cc1 (centres undefined)
AHH-1 [1]
  IC50: > 640 µM

## O=S(=O)(Cc1ccc(F)cc1)c1ccc2cc(Br)ccc2n1
AHH-1 [1]
  IC50: > 640 µM

## N#Cc1ccc(CS(=O)(=O)c2ccc3cc(Cl)ccc3n2)cc1
AHH-1 [1]
  IC50: > 640 µM

## Fc1ccc(CSc2ccc3cc(Cl)ccc3n2)cc1
AHH-1 [1]
  IC50: 153 µM

## O=S(=O)(Cc1ccccc1)c1ccc2cc(Br)ccc2n1
AHH-1 [1]
  IC50: 169 µM

## N#Cc1ccc(CSc2ccc3cc(Br)ccc3n2)cc1
AHH-1 [1]
  IC50: 146 µM

## Fc1ccc2nc(SCc3ccccc3)ccc2c1
AHH-1 [1]
  IC50: > 640 µM

## Clc1ccc2nc(SCc3ccc(Br)cc3)ccc2c1
AHH-1 [1]
  IC50: > 640 µM

## [O-][S+](Cc1ccc(Cl)cc1)c1ccc2ccccc2n1 (centres undefined)
AHH-1 [1]
  IC50: 97 µM

## O=S(=O)(Cc1ccc(Cl)cc1)c1ccc2cc(Cl)ccc2n1
AHH-1 [1]
  IC50: > 640 µM

## [O-][S+](Cc1ccccc1)c1ccc2cc(Br)ccc2n1 (centres undefined)
AHH-1 [1]
  IC50: > 640 µM

## O=S(=O)(Cc1ccccc1)c1ccc2cc(F)ccc2n1
AHH-1 [1]
  IC50: > 640 µM

## N#Cc1ccc(CSc2ccc3cc(Cl)ccc3n2)cc1
AHH-1 [1]
  IC50: > 640 µM

## N#Cc1ccc(C[S+]([O-])c2ccc3cc(Br)ccc3n2)cc1 (centres undefined)
AHH-1 [1]
  IC50: 212 µM

## O=S(=O)(Cc1ccc(Br)cc1)c1ccc2cc(Cl)ccc2n1
AHH-1 [1]
  IC50: > 640 µM

## Brc1ccc(CSc2ccc3ccccc3n2)cc1
AHH-1 [1]
  IC50: 174 µM

## O=S(=O)(Cc1ccc(Cl)cc1)c1ccc2ccccc2n1
AHH-1 [1]
  IC50: 129 µM

## O=S(=O)(Cc1ccc(Br)cc1)c1ccc2cc(Br)ccc2n1
AHH-1 [1]
  IC50: > 640 µM

## O=S(=O)(Cc1ccc(F)cc1)c1ccc2cc(Cl)ccc2n1
AHH-1 [1]
  IC50: > 640 µM

## Brc1ccc2nc(SCc3ccccc3)ccc2c1
AHH-1 [1]
  IC50: > 640 µM

## Clc1ccc(CSc2ccc3cc(Br)ccc3n2)cc1
AHH-1 [1]
  IC50: 215 µM

## Clc1ccc(CSc2ccc3ccccc3n2)cc1
AHH-1 [1]
  IC50: 73 µM

## O=C(O)c1ccc(CS(=O)(=O)c2ccc3cc(F)ccc3n2)cc1
AHH-1 [1]
  IC50: > 640 µM

## Brc1ccc(CSc2ccc3cc(Br)ccc3n2)cc1
AHH-1 [1]
  IC50: > 640 µM

## [O-][S+](Cc1ccc(F)cc1)c1ccc2ccccc2n1 (centres undefined)
AHH-1 [1]
  IC50: > 640 µM

## Clc1ccc(CSc2ccc3cc(Cl)ccc3n2)cc1
AHH-1 [1]
  IC50: > 640 µM

## Fc1ccc(CSc2ccc3cc(F)ccc3n2)cc1
AHH-1 [1]
  IC50: > 640 µM

## Fc1ccc(CSc2ccc3ccccc3n2)cc1
AHH-1 [1]
  IC50: > 640 µM

## O=S(=O)(Cc1ccc(F)cc1)c1ccc2cc(F)ccc2n1
AHH-1 [1]
  IC50: > 640 µM
AHH-1 [2]
  Activity: 27.51%

## [O-][S+](Cc1ccc(Br)cc1)c1ccc2cc(Br)ccc2n1 (centres undefined)
AHH-1 [1]
  IC50: > 640 µM

## Fc1ccc(CSc2ccc3cc(Br)ccc3n2)cc1
AHH-1 [1]
  IC50: > 640 µM
AHH-1 [2]
  Activity: 26.21%

## O=C([O-])c1ccc(/C=C/S(=O)(=O)Cc2ccc(Cl)cc2)cc1.[Na+] [RECILISIB SODIUM]
Mus musculus [4]
  Activity: 47.73%
Mus musculus [5]
  Activity: Active
Mus musculus [6]
  Activity: inactive
AHH-1 [7]
  Activity: 49.2%
AHH-1 [1]
  IC50: > 640 µM
Mus musculus [8]
  Activity: Active
AHH-1 [9]
  Activity: 47.5%
Mus musculus [3]
  survival at 30 mg/kg: 40%
AHH-1 [10]
  Activity: 7.68%
Mus musculus [11]
  Activity: inactive
Mus musculus [12]
  Activity: Active
AHH-1 [13]
  Activity: 16.5%
AHH-1 [14]
  Activity: 28.4%
AHH-1 [15]
  Activity: 4.82%
Mus musculus [16]
  Activity: Active
AHH-1 [17]
  Activity: 27.3%
Mus musculus [18]
  Activity: Active
AHH-1 [19]
  Activity: 31.1%
AHH-1 [20]
  Activity: 16.4%
AHH-1 [21]
  Activity: 48%
AHH-1 [22]
  Activity: 14.8%
AHH-1 [23]
  Activity: 8.35%

— ChEMBL document CHEMBL5505982, “Design, synthesis, biological evaluation and in silico studies of novel quinoline derivatives as potential radioprotective molecules targeting the TLR2 and p53 pathways” (Eur J Med Chem, 2024)
